The target in assay [1] is T1, INDY (Drosophila melanogaster, UniProt Q9VVT2).
T1 construct: expressed in transfected cells; host or cells: Xenopus laevis oocytes (stage V and VI) injected with Indy mRNA
The assay is described as follows: Inhibition of [14C] succinate uptake in Xenopus oocytes injected with Indy mRNA. The class given is cell-based. As to the method:
Stage V and VI oocytes from Xenopus laevis were dissected and defoliculated. The oocytes were injected with 25–50 ng of Indy mRNA 1 day after isolation. Nutrient uptake was measured 6 to 7 days later. The oocytes were maintained at 18° C. in Barth's solution containing […] gentamycin sulfate, 2.5 mM sodium pyruvate, and 5% heat-inactivated horse serum (Coady et al., Arch. Biochem. Biophys. 283: 130–134, 1990; Pajor and Wright, J. Biol. Chem 26:, 3557–3560, 1992).
Transport measurements were performed as in Pajor, J. Biol. Chem. 270: 5779–5785, 1995. Groups of oocytes were first washed in choline buffer to remove the serum. Transport was initiated by adding 0.4 ml of [^14C] succinate or [^14C] citrate in buffer A. Buffer A comprises 100 mM NaCl, 2 mM KCl, 1 mM MgCl2, and 10 mM HEPES-Tris (pH 7.5). Buffer B is the same as buffer A except the NaCl is replaced by 100 mM choline Cl. For other cation replacement studies, the sodium was replaced by equimolar amounts of the other cations, as their chloride salts. At the completion of the transport time, the nutrient uptake was stopped with 4 washes of 4 ml of ice-cold buffer B. To count the amount of [^14C] taken up by the oocyte, each oocyte was dissolved in 0.5 ml of 10% SDS, and the [^14C] assayed by scintillation counting.
Studies of sodium dicarboxylate cotransporters have indicated a broad range of specificity for di- and tri-carboxylic acids and the exclusion of monocarboxylic acids. The transport specificity of Indy was thus determined as the ability of various compounds to inhibit the uptake of [^14C] succinate. The test inhibitors were added at a concentration of 1 mM, approximately a 100-fold excess of inhibitor.
The relative affinity of INDY for succinate and citrate was determined by adding a constant amount of [^14C] succinate and increasing concentrations of citrate to oocytes expressing INDY.
To further characterize INDY, inhibitors of transport were added to the Indy oocyte system. P-aminohippuric Acid (PAH) is a reference compound used to study transport mechanisms. 4,4′-Diisothyocyanostilbene-2,2′-disulfonic acid (DIDS) is a specific inhibitor of channels. Phloretin is an inhibitor of channels that is known to block protein kinase C.

The target in assay [2] is T2, rat sodium dicarboxylate cotransporter (Rattus norvegicus, UniProt P70545).
T2 sequence (P70545 1-587): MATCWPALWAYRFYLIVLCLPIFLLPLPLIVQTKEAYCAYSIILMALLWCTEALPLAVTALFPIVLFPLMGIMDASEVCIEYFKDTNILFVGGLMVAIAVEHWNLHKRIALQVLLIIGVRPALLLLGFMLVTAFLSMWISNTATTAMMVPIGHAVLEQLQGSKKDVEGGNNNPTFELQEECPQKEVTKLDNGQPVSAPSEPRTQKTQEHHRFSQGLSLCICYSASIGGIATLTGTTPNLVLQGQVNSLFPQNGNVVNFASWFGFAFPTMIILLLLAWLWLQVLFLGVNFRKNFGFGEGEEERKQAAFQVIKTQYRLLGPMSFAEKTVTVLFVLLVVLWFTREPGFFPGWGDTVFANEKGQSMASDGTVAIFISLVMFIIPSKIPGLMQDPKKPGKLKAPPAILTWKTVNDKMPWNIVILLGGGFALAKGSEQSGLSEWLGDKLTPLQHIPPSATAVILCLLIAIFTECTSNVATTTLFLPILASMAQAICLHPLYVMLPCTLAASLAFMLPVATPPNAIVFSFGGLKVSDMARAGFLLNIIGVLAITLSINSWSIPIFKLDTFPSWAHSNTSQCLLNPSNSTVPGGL
Conditions: cited from earlier work.

Where [3] appears, read: test inhibitor at 1 mM, approximately 100-fold excess, FIG. 14.

Read-outs that look alike come from different tables or passages of the source.

T1 sequence (Q9VVT2 19-590 limits assumed): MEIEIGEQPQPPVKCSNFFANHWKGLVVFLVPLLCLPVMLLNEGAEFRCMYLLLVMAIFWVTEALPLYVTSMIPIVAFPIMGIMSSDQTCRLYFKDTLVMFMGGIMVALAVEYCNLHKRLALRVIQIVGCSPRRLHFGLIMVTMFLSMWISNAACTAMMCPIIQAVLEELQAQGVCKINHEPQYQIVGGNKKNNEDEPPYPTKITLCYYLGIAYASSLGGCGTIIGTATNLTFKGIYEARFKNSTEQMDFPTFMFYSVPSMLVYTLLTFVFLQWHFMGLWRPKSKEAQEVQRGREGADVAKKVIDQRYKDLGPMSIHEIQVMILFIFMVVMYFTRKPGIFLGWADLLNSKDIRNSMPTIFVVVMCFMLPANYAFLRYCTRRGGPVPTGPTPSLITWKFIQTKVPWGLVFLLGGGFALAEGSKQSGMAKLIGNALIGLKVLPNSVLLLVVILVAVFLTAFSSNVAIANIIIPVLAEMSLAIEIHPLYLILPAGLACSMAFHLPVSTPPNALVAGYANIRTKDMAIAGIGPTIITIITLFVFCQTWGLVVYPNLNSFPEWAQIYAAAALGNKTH

On to `O=S(=O)(O)c1cc(N=C=S)ccc1C=Cc1ccc(N=C=S)cc1S(=O)(=O)O` [DIDS, 4,4′-Diisothyocyanostilbene-2,2′-disulfonic acid], for which the “inhibition of succinate transport” value in assay [1] (0.1 mM DIDS, FIG. 18) was determined as 80%.

Consider `Nc1ccc(C(=O)NCC(=O)O)cc1` [PAH, P-aminohippuric Acid], for which the “effect on succinate transport (in words)” value in assay [1] (10 mM PAH, FIG. 18) is on record as “no effect”.

As for `O=C(O)CCC(=O)C(=O)O` [alpha-ketoglutarate], in assay [1] (setting [3]), the “inhibition of [14C] succinate uptake” value is reported as ~100%.

Broadly, the inhibition is how much of the control response was suppressed. On to `O=C(O)CC(O)(CC(=O)O)C(=O)O` [citrate], for which the inhibition at 100 µM in assay [1] (citrate at 0.1 mM, FIG. 17) was ~50%. The inhibition at 1000 µM in assay [1] (citrate at 1 mM, FIG. 17, read-out: inhibition of succinate uptake) was ~90%; in assay [1] (test inhibitor at 1 mM, approximately 100-fold excess, FIG. 14, read-out: inhibition of [14C] succinate uptake), ~100%. For the same molecule, the “inhibition of succinate uptake (in words)” value in assay [1] (citrate at 10 mM, FIG. 17) was “completely inhibits”.

`O=C(O)/C=C/C(=O)O` [fumarate]: the “inhibition of [14C] succinate uptake” value in assay [1] (setting [3]) is on record as ~100%.

Regarding `N[C@@H](CCC(=O)O)C(=O)O` [glutamate], the “inhibition of succinate transport (in words)” value in assay [1] (setting [3]) was “little inhibition”.

Consider `CC(O)C(=O)O` (centres unmarked) [lactate], for which the “inhibition of succinate transport (in words)” value in assay [1] (setting [3]) was “little inhibition”.

For the molecule `O=C(CCc1ccc(O)cc1)c1c(O)cc(O)cc1O` [phloretin, Phloretin], the “effect on succinate transport (in words)” value in assay [1] (1 mM phloretin, FIG. 18) is given as “no effect”. Further, the “effect on inward and outward currents in sodium-dependent transport” value in assay [2] is “inhibit both inward and outward currents”.

In the case of `O=C(O)CCC(=O)O` [succinate], in assay [1] (setting [3]), the “inhibition of [14C] succinate uptake” value is reported as ~100%.

For `O=S(=O)(O)O` [sulfate], the “inhibition of succinate transport (in words)” value in assay [1] (setting [3]) was “little inhibition”.

The values above are taken from patent publication US7118873B2, “Polynucleotides encoding cellular transporters and methods of use thereof” (The University of Connecticut, priority 2000, dated 2006).
